From patent publication US9193731B2, “Antimicrobial compounds and methods of making and using the same” (Melinta Therapeutics, Inc., priority 2009, dated 2015)

Test system: Escherichia coli strain ATCC25922
Assay: standard microdilution assay to determine minimum inhibitory concentrations (MICs)
Format: cell-based
Details: for MIC: Escherichia coli, ATCC25922, Escherichia coli strain ATCC25922, microdilution, read-out: E. coli ATCC25922 MIC; for E. coli ATCC25922 MIC: Escherichia coli strain ATCC25922, microdilution
Procedure, shortened: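 Broth microdilution MIC against E. coli ATCC25922, following CLSI protocols, typically in a 100 microliter final volume. Results reported as +/− relative to a 16 micrograms/ml cutoff.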

| SMILES | MIC | E. coli ATCC25922 MIC |
| --- | --- | --- |
| CNCc1ccc(-n2cc3cc(-c4ccc(S(=O)(=O)N(CCCC5CCCO5)C5CCNCC5)cc4)[nH]c3nc2=O)cc1 (centres unmarked) [Compound 1052] | > 16 µg/mL |  |
| NCc1ccc(-n2cc3cc(-c4ccc(S(=O)(=O)N(CCCc5ccc(F)cc5)C5CCNCC5)cc4)[nH]c3nc2=O)cc1 [Compound 1053] | > 16 µg/mL |  |
| CNCc1ccc(-n2cc3cc(-c4ccc(S(=O)(=O)N(CCCN5Cc6ccccc6C5)C5CCNCC5)cc4)[nH]c3nc2=O)cc1 [Compound 1054] | > 16 µg/mL |  |
| N=C(N)NCCCNCCCn1cc2cc(-c3ccc(S(=O)(=O)NC4CCNCC4)cc3)[nH]c2nc1=O [Compound 1059] |  | + (a “+” indicates that the compound has an MIC value of 16 micrograms/ml or less) |
| N=C(N)NCCCNCc1ccc(-n2cc3cc(-c4cc(CNc5ccc(F)cc5)cc(N5CCNCC5)c4)[nH]c3nc2=O)cc1 [Compound 1060] |  | + (a “+” indicates that the compound has an MIC value of 16 micrograms/ml or less) |
| N=C(N)NCCCNCc1ccc(-n2cc3cc(-c4cc(C(=O)Nc5nc(C(F)(F)F)cs5)cc(N5CCNCC5)c4)[nH]c3nc2=O)cc1 [Compound 1061] |  | + (a “+” indicates that the compound has an MIC value of 16 micrograms/ml or less) |
| CNCc1ccc(-n2cc3cc(-c4ccc(S(=O)(=O)N(CCCc5ccc(F)cc5)C5CCNCC5)cc4)[nH]c3nc2=O)cc1 [Compound 1062] |  | − (a “−” indicates that the compound has an MIC value greater than 16 micrograms/ml) |
| CNCc1ccc(-n2cc3cc(-c4ccc(S(=O)(=O)N(CCCN5CCc6ccccc65)C5CCNCC5)cc4)[nH]c3nc2=O)cc1 [Compound 1063] |  | − (a “−” indicates that the compound has an MIC value greater than 16 micrograms/ml) |
| CNCc1ccc(-n2cc3cc(-c4ccc(S(=O)(=O)N(CCCc5ccc(O)cc5)C5CCNCC5)cc4)[nH]c3nc2=O)cc1 [Compound 1064] |  | − (a “−” indicates that the compound has an MIC value greater than 16 micrograms/ml) |
| NCc1ccc(-n2cc3cc(-c4ccc(S(=O)(=O)N(CCCN5Cc6ccccc6C5)C5CCNCC5)cc4)[nH]c3nc2=O)cc1 [Compound 1065] | > 16 µg/mL |  |
| NCc1ccc(-n2cc3cc(-c4ccc(S(=O)(=O)N(CCCC5CCCO5)C5CCNCC5)cc4)[nH]c3nc2=O)cc1 (centres unmarked) [Compound 1066] | > 16 µg/mL |  |
| NCc1ccc(-n2cc3cc(-c4ccc(S(=O)(=O)N(CCCN5CCc6ccccc65)C5CCNCC5)cc4)[nH]c3nc2=O)cc1 [Compound 1067] | > 16 µg/mL |  |
| N=C(N)NCCCNCc1ccc(-n2cc3cc(-c4cc(C(=O)NCCc5cccc(F)c5)cc(N5CCNCC5)c4)[nH]c3nc2=O)cc1 [Compound 1068] |  | + (a “+” indicates that the compound has an MIC value of 16 micrograms/ml or less) |
| N=C(N)NCCCNCc1ccc(-n2cc3cc(-c4cc(C(=O)Nc5cccc(C(F)(F)F)c5)cc(N5CCNCC5)c4)[nH]c3nc2=O)cc1 [Compound 1069] |  | + (a “+” indicates that the compound has an MIC value of 16 micrograms/ml or less) |
| N=C(N)NCCCNCc1ccc(-n2cc3cc(-c4cc(C(=O)N5CCC(F)(F)CC5)cc(N5CCNCC5)c4)[nH]c3nc2=O)cc1 [Compound 1074] |  | + (a “+” indicates that the compound has an MIC value of 16 micrograms/ml or less) |
| N=C(N)NCCC(=O)NCc1ccc(-n2cc3cc(-c4ccc(S(=O)(=O)NC5CCNCC5)cc4)[nH]c3nc2=O)cc1 [Compound 1075] |  | + (a “+” indicates that the compound has an MIC value of 16 micrograms/ml or less) |
| N=C(N)NCCCNCc1ccc(-n2cc3cc(-c4cccc(S(=O)(=O)N(Cc5ccc6nonc6c5)C5CCNCC5)c4)[nH]c3nc2=O)cc1 [Compound 1076] |  | + (a “+” indicates that the compound has an MIC value of 16 micrograms/ml or less) |
| N=C(N)NCCCNCc1ccc(-n2cc3cc(-c4cccc(S(=O)(=O)N(CCN5CCCCC5)C5CCNCC5)c4)[nH]c3nc2=O)cc1 [Compound 1077] |  | + (a “+” indicates that the compound has an MIC value of 16 micrograms/ml or less) |
| CNCc1ccc(-n2cc3cc(-c4ccc(S(=O)(=O)N(CCCN5CCCC(O)C5)C5CCNCC5)cc4)[nH]c3nc2=O)cc1 (centres unmarked) [Compound 1079] | > 16 µg/mL |  |
| NC(=O)c1ccc(-n2cc3cc(-c4ccc(S(=O)(=O)N(CCOc5ccc(F)cc5)C5CCNCC5)cc4)[nH]c3nc2=O)cc1 [Compound 1080] | > 16 µg/mL |  |
| NCc1ccc(-n2cc3cc(-c4ccc(S(=O)(=O)N(CCCc5ccc(O)cc5)C5CCNCC5)cc4)[nH]c3nc2=O)cc1 [Compound 1081] | > 16 µg/mL |  |
| NCC(Cn1cc2cc(-c3ccc(S(=O)(=O)NC4CCNCC4)cc3)[nH]c2nc1=O)OCc1ccc(F)cc1 (centres unmarked) [Compound 1085] | > 16 µg/mL |  |
| NCCCOc1cccc(-c2cc3cn(-c4ccc(CN)cc4)c(=O)nc3[nH]2)c1 [Compound 1087] | > 16 µg/mL |  |
| NCc1ccc(-n2cc3cc(-c4ccccc4OCCO)[nH]c3nc2=O)cc1 [Compound 1088] | > 16 µg/mL |  |
| N=C(N)NCCCNCC(Cn1cc2cc(-c3ccc(S(=O)(=O)NC4CCNCC4)cc3)[nH]c2nc1=O)OCc1ccc(F)c(F)c1 (centres unmarked) [Compound 1089] |  | − (a “−” indicates that the compound has an MIC value greater than 16 micrograms/ml) |

| SMILES | MIC | E. coli ATCC25922 MIC |
| --- | --- | --- |
| N=C(N)NCCCNC(=O)c1ccc(-n2cc3cc(-c4ccc(S(=O)(=O)N(Cc5cc(OC(F)(F)F)ccc5F)C5CCNCC5)cc4)[nH]c3nc2=O)cc1 [Compound 1090] |  | + (a “+” indicates that the compound has an MIC value of 16 micrograms/ml or less) |
| COc1ccc(CN(C2CCNCC2)S(=O)(=O)c2ccc(-c3cc4cn(-c5ccc(C(N)=O)cc5)c(=O)nc4[nH]3)cc2)cc1[N+](=O)[O-] [Compound 1091] |  | − (a “−” indicates that the compound has an MIC value greater than 16 micrograms/ml) |
| NCc1ccc(-n2cc3cc(-c4ccc(S(=O)(=O)N(CCCN5CCCC(O)C5)C5CCNCC5)cc4)[nH]c3nc2=O)cc1 (centres unmarked) [Compound 1092] |  | − (a “−” indicates that the compound has an MIC value greater than 16 micrograms/ml) |
| N=C(N)NCCCNC(=O)c1ccc(-n2cc3cc(-c4ccc(S(=O)(=O)N(CCOc5ccc(F)cc5)C5CCNCC5)cc4)[nH]c3nc2=O)cc1 [Compound 1093] |  | + (a “+” indicates that the compound has an MIC value of 16 micrograms/ml or less) |
| COCCOCCOc1cccc(-c2cc3cn(-c4ccc(CN)cc4)c(=O)nc3[nH]2)c1 [Compound 1094] | > 16 µg/mL |  |
| N=C(N)NCCCNCC(Cn1cc2cc(-c3ccc(S(=O)(=O)NC4CCNCC4)cc3)[nH]c2nc1=O)OCc1ccc(F)cc1 (centres unmarked) [Compound 1097] |  | − (a “−” indicates that the compound has an MIC value greater than 16 micrograms/ml) |
| NCc1ccc(-n2cc3cc(-c4cccc(OCCCO)c4)[nH]c3nc2=O)cc1 [Compound 1099] | > 16 µg/mL |  |
| NCc1ccc(-n2cc3cc(-c4cccc(OCCO)c4)[nH]c3nc2=O)cc1 [Compound 1100] | > 16 µg/mL |  |
| COCCOCCOc1cccc(-c2cc3cn(-c4ccc(CNCCCNC(=N)N)cc4)c(=O)nc3[nH]2)c1 [Compound 1101] | > 16 µg/mL |  |
| N=C(N)NOCCNCc1ccc(-n2cc3cc(-c4ccc(S(=O)(=O)NC5CCNCC5)cc4)[nH]c3nc2=O)cc1 [Compound 1102] |  | + (a “+” indicates that the compound has an MIC value of 16 micrograms/ml or less) |
| N=C(N)NCCCNS(=O)(=O)c1ccc(-n2cc3cc(-c4ccc(S(=O)(=O)NC5CCNCC5)cc4)[nH]c3nc2=O)cc1 [Compound 1103] |  | + (a “+” indicates that the compound has an MIC value of 16 micrograms/ml or less) |
| N=C(N)NCCNCc1ccc(-n2cc3cc(-c4ccc(S(=O)(=O)NC5CCNCC5)cc4)[nH]c3nc2=O)cc1 [Compound 1104] |  | + (a “+” indicates that the compound has an MIC value of 16 micrograms/ml or less) |
| NCc1ccc(-n2cc3cc(-c4ccccc4OCCCO)[nH]c3nc2=O)cc1 [Compound 1105] | > 16 µg/mL |  |
| NCCCOc1ccccc1-c1cc2cn(-c3ccc(CN)cc3)c(=O)nc2[nH]1 [Compound 1106] | > 16 µg/mL |  |
| NCc1ccc(-n2cc3cc(-c4cccc(OCCCN5CCNCC5)c4)[nH]c3nc2=O)cc1 [Compound 1107] | > 16 µg/mL |  |
| N=C(N)NCCNCC(O)Cn1cc2cc(-c3ccc(S(=O)(=O)NC4CCNCC4)cc3)[nH]c2nc1=O (centres unmarked) [Compound 1108] |  | + (a “+” indicates that the compound has an MIC value of 16 micrograms/ml or less) |
| N=C(N)NCCCNCc1ccc(-n2cc3cc(-c4cccc(OCCCO)c4)[nH]c3nc2=O)cc1 [Compound 1110] | > 16 µg/mL |  |
| CN(C)CCOc1ccccc1-c1cc2cn(-c3ccc(CN)cc3)c(=O)nc2[nH]1 [Compound 1111] | > 16 µg/mL |  |
| C=Cc1cc2cn(-c3ccc(C(=O)NCCCNC(=N)N)cc3)c(=O)nc2[nH]1 [Compound 1112] | > 16 µg/mL |  |
| CN(C)CCCOc1cccc(-c2cc3cn(-c4ccc(CN)cc4)c(=O)nc3[nH]2)c1 [Compound 1113] | > 16 µg/mL |  |
| COc1ccc(CN(C2CCNCC2)S(=O)(=O)c2ccc(-c3cc4cn(-c5ccc(C(=O)NCCCNC(=N)N)cc5)c(=O)nc4[nH]3)cc2)cc1[N+](=O)[O-] [Compound 1114] |  | + (a “+” indicates that the compound has an MIC value of 16 micrograms/ml or less) |
| NC(=O)c1ccc(-n2cc3cc(-c4ccc(S(=O)(=O)N(Cc5cc(OC(F)(F)F)ccc5F)C5CCNCC5)cc4)[nH]c3nc2=O)cc1 [Compound 1115] |  | − (a “−” indicates that the compound has an MIC value greater than 16 micrograms/ml) |
| NC(=O)c1ccc(-n2cc3cc(-c4ccc(S(=O)(=O)N(CCCn5ccc(C(F)(F)F)n5)C5CCNCC5)cc4)[nH]c3nc2=O)cc1 [Compound 1116] |  | − (a “−” indicates that the compound has an MIC value greater than 16 micrograms/ml) |
| NCc1ccc(-n2cc3cc(-c4ccccc4OCCCN4CCNCC4)[nH]c3nc2=O)cc1 [Compound 1117] | > 16 µg/mL |  |
| N=C(N)N[C@@H]1CCCN(Cc2ccc(-n3cc4cc(-c5ccc(S(=O)(=O)NC6CCNCC6)cc5)[nH]c4nc3=O)cc2)C1 [Compound 1119] |  | + (a “+” indicates that the compound has an MIC value of 16 micrograms/ml or less) |
